Results published in patent US3966951A, “Esters of quinoxaline-1,4-dioxides” (Pfizer Inc., priority 1975, dated 1976).
Values after ≈ are worked out from the molar mass of the structure shown.

Legend:
[1] = tolerance and pathological examination in swine; format: in vivo
[2] = tested on: E. Coli 51A-218; experiment: in vitro MIC, Inocula Replicating Device, anaerobic Gas Pac, BHI agar; format: cell-based; settings: unit assumed
[3] = tested on: Sal. typhim 58D011; experiment: as above; format: cell-based; settings: unit assumed
[4] = tested on: Past. mult 59A006; experiment: as above; format: cell-based; settings: unit assumed
[5] = tested on: Strep. pyogen 02C203; experiment: as above; format: cell-based; settings: unit assumed
[6] = tested on: Staph. aureus 01A005; experiment: as above; format: cell-based; settings: unit assumed
[7] = tested on: Sal. cholsu 58B242; experiment: as above; format: cell-based; settings: unit assumed
[8] = tolerance in chicks; format: in vivo; settings: 250 ppm
[9] = tested on: salmonellosis; experiment: prophylaxis of induced salmonellosis; format: in vivo, swine; settings: 50 ppm in feed
Description: (§1) In the prophylaxis of two induced diseases, swine dysentery and salmonellosis, excellent results have been obtained. […] In the salmonellosis model, 20 percent of the nonmedicated animals died and 50 percent of the survivors were unthrifty.

[10] = tested on: Staph. aureus 01A106; experiment: in vitro MIC, Inocula Replicating Device, anaerobic Gas Pac, BHI agar; format: cell-based; settings: unit assumed
[11] = tested on: Strep. zoo 02-H001; experiment: as above; format: cell-based; settings: unit assumed
[12] = feed efficiency of swine; format: in vivo; settings: 50 ppm in feed
[13] = tested on: E. Coli 51A-266; experiment: in vitro MIC, Inocula Replicating Device, anaerobic Gas Pac, BHI agar; format: cell-based; settings: unit assumed
[14] = tested on: Past. mult 59A004; experiment: as above; format: cell-based; settings: unit assumed
[15] = tested on: Treponema hyodysenteriae; experiment: MIC against Treponema hyodysenteriae on bovine blood/tryptose agar; format: cell-based; settings: about 5% bovine blood, about 3% tryptose agar, unit assumed
Procedure: MIC's against Treponema hyodysenteriae were determined by spreading appropriate dilutions of the microorganism on a growth medium containing about 5% bovine blood and about 3% tryptose agar.

[16] = tested on: E. Coli 51A266; experiment: acute systemic infection in mice, PD50; format: in vivo; settings: Escherichia coli, 0.5, 4 and 24 h after inoculation, ± is 95% confidence
Procedure: (§2) Acute systemic infections in mice have been used to evaluate the in vivo therapeutic activity of Compound 10. These infections are produced by the intraperitoneal injection of standard cultures suspended in hog gastric mucin. Treatment was initiated 0.5 hours after inoculation with the infecting organism and two subsequent doses administered at 4 and 24 hours after inoculation. Efficacy was measured in PD50 values, the dose of the drug in mg/kg required to protect 50% of the treated mice against otherwise lethal infections. These values were calculated based on the number of mice surviving a 4 day post-treatment holding period. The drugs were administered both orally (po) and subcutaneously (sc). The range quoted indicates the 95% confidence level for the PD50.

[17] = tested on: Sal. cholsu. 58B242; experiment: acute systemic infection in mice, PD50; format: in vivo; settings: Mus musculus, 0.5, 4 and 24 h after inoculation, ± is 95% confidence
Procedure: as §2

[18] = tested on: Past. multi. 59A006; experiment: acute systemic infection in mice, PD50; format: in vivo; settings: Mus musculus, 0.5, 4 and 24 h after inoculation, ± is 95% confidence
Procedure: as §2

[19] = tested on: Sal. dublin 58U001; experiment: in vitro MIC, Inocula Replicating Device, anaerobic Gas Pac, BHI agar; format: cell-based; settings: unit assumed
[20] = tested on: Strep. equi 021001; experiment: as above; format: cell-based; settings: unit assumed
[21] = tested on: Aer. hydro 72B001; experiment: as above; format: cell-based; settings: unit assumed
[22] = tested on: swine dysentery; experiment: prophylaxis of induced swine dysentery; format: in vivo; settings: 25 ppm or 50 ppm in feed
Description: as §1

Primary in vitro Activity (MIC) [2]	Primary in vitro Activity (MIC) [3]	Primary in vitro Activity (MIC) [4]	Primary in vitro Activity (MIC) [5]	Primary in vitro Activity (MIC) [6]	Primary in vitro Activity (MIC) [10]	Primary in vitro Activity (MIC) [11]	Primary in vitro Activity (MIC) [13]	Primary in vitro Activity (MIC) [14]	Primary in vitro Activity (MIC) [19]	Primary in vitro Activity (MIC) [20]	Primary in vitro Activity (MIC) [21]	Structure (SMILES)	Primary in vitro Activity (MIC) [7]	also measured
12.5 µg/mL	12.5 µg/mL	25 µg/mL	12.5 µg/mL	6.25 µg/mL	6.25 µg/mL	50 µg/mL	12.5 µg/mL	12.5 µg/mL	25 µg/mL	0.78 µg/mL	1.56 µg/mL	O=C(C=Cc1ccc(O)cc1)OCc1c(CO)[n+]([O-])c2ccccc2[n+]1[O-] [Compound 7]	25 µg/mL	–
50 µg/mL	50 µg/mL	25 µg/mL	3.12 µg/mL	1.56 µg/mL	1.56 µg/mL	< 1.56 µg/mL	50 µg/mL	12.5 µg/mL	50 µg/mL	< 1.56 µg/mL	6.25 µg/mL	CC(=O)c1c(COC(=O)c2ccc(O)cc2)[n+]([O-])c2ccccc2[n+]1[O-] [Compound 1]	50 µg/mL	–
100 µg/mL	100 µg/mL	50 µg/mL	50 µg/mL	25 µg/mL	25 µg/mL	100 µg/mL	100 µg/mL	50 µg/mL	100 µg/mL	12.5 µg/mL	12.5 µg/mL	O=C(CCc1ccc(O)cc1)OCc1c(CO)[n+]([O-])c2ccccc2[n+]1[O-] [Compound 5]	100 µg/mL	–
12.5 µg/mL	50 µg/mL	6.25 µg/mL	6.25 µg/mL	0.78 µg/mL	1.56 µg/mL	< 1.56 µg/mL	12.5 µg/mL	12.5 µg/mL	50 µg/mL	< 1.56 µg/mL	< 1.56 µg/mL	CC(=O)c1c(COC(=O)Cc2ccc(O)cc2)[n+]([O-])c2ccccc2[n+]1[O-] [Compound 3]	50 µg/mL	–
50 µg/mL	200 µg/mL	50 µg/mL	6.25 µg/mL	12.5 µg/mL	12.5 µg/mL	6.25 µg/mL	100 µg/mL	< 100 µg/mL	100 µg/mL	6.25 µg/mL	6.25 µg/mL	O=C(CCc1ccc(O)cc1)OCc1c[n+]([O-])c2ccccc2[n+]1[O-] [Compound 8]	50 µg/mL	–
50 µg/mL	25 µg/mL	12.5 µg/mL	< 1.56 µg/mL	3.2 µg/mL	3.2 µg/mL	100 µg/mL	25 µg/mL	100 µg/mL	25 µg/mL	< 1.56 µg/mL	12.5 µg/mL	O=C(OCc1c(CO)[n+]([O-])c2ccccc2[n+]1[O-])c1ccc(O)cc1 [Compound 4]	50 µg/mL	–
50 µg/mL	< 100 µg/mL	25 µg/mL	25 µg/mL	12.5 µg/mL	6.25 µg/mL	< 100 µg/mL	< 100 µg/mL	12.5 µg/mL	< 100 µg/mL	< 1.56 µg/mL	3.2 µg/mL	CC(=O)c1c(COC(=O)c2cccc(O)c2)[n+]([O-])c2ccccc2[n+]1[O-] [Compound 2]	< 100 µg/mL	–
12.5 µg/mL	25 µg/mL	25 µg/mL	< 1.56 µg/mL	1.56 µg/mL	1.56 µg/mL	12.5 µg/mL	12.5 µg/mL	12.5 µg/mL	25 µg/mL	< 1.56 µg/mL	1.56 µg/mL	O=C(Cc1ccc(O)cc1)OCc1c(CO)[n+]([O-])c2ccccc2[n+]1[O-] [Compound 6]	25 µg/mL	–
25 µg/mL	25 µg/mL	12.5 µg/mL	3.12 µg/mL	6.25 µg/mL	12.5 µg/mL	6.25 µg/mL	50 µg/mL	50 µg/mL	50 µg/mL	6.25 µg/mL	3.12 µg/mL	O=C(Cc1ccc(O)cc1)OCc1c[n+]([O-])c2ccccc2[n+]1[O-] [Compound 9]	12.5 µg/mL	–

Structure (SMILES)	Primary in vitro Activity (MIC) [2]	Primary in vitro Activity (MIC) [3]	Primary in vitro Activity (MIC) [4]	Primary in vitro Activity (MIC) [5]	Primary in vitro Activity (MIC) [6]	Primary in vitro Activity (MIC) [10]	Primary in vitro Activity (MIC) [11]	Primary in vitro Activity (MIC) [13]	Primary in vitro Activity (MIC) [14]	Primary in vitro Activity (MIC) [19]	Primary in vitro Activity (MIC) [20]	Primary in vitro Activity (MIC) [21]	Primary in vitro Activity (MIC) [7]	also measured
CC(=O)c1c(COC(=O)CCc2ccc(O)cc2)[n+]([O-])c2ccccc2[n+]1[O-] [Compound 10, 2-acetyl-3-Hydroxymethyl-Quinoxaline-1,4-Dioxide-p-Hydroxyphenylpropionic Acid Ester]	6.25 µg/mL	12.5 µg/mL	12.5 µg/mL	< 0.39 µg/mL	< 0.39 µg/mL	< 0.39 µg/mL	< 0.39 µg/mL	25 µg/mL	25 µg/mL	50 µg/mL	< 0.39 µg/mL	1.56 µg/mL	50 µg/mL	tolerance in swine ([1]; 150 ppm): The same results are observed in swine; adverse effects on pathological examination ([1]; swine, 50 ppm in feed): no adverse effects; tolerance in chicks [8]: extremely well tolerated; mortality in salmonellosis model ([9]; nonmedicated: 20 percent died): none of the animals on a feed containing 50 ppm of Compound 10 died; animals judged unthrifty in salmonellosis model ([9]; nonmedicated: 50 percent of survivors): 30%; increase in feed efficiency of swine [12]: 3%; MIC [15]: 0.19 µg/mL (≈ 0.497 µM); ED50 ([16]; po): 7.6 ± 4.7 mg/kg; ED50 ([16]; sc): 13.3 ± 8.6 mg/kg; ED50 ([17]; po): 8.4 ± 3.2 mg/kg; ED50 ([17]; sc): 6.9 ± 3.1 mg/kg; ED50 ([18]; po): 13 ± 1.6 mg/kg; ED50 ([18]; sc): 13 ± 1.6 mg/kg; morbidity in dysentery model ([22]; nonmedicated: 100 percent): no deaths or morbidity; mortality in dysentery model ([22]; nonmedicated: average 36 percent): no deaths
